The values below come from patent publication US6130053A, “Method for selecting compounds for inhibition of neoplastic lesions” (priority 1999, dated 2000).

One data set has as its system HT-29 cells. The experiment in a line: Growth inhibition of HT-29 cells. It is filed as cell-based, human.
For a further data set, the system named is cGMP PDE. The experiment in a line: cGMP PDE inhibition assay, enzyme purified from HT-29 cultured tumor cells. It is filed as biochemical, human.
Data set [1] deals with SW-480 colon adenocarcinoma cells. The experiment in a line: Apoptosis inducing activity, fold induction (fold stimulation, DNA fragmentation ELISA). As to conditions: for fold induction at 100 µM: Homo sapiens, SW480, read-out: Fold induction of apoptosis at 100 μM, 100 μM. Background: In an ELISA, binding on a coated surface is turned into a signal by an enzyme label.
For data set [2], the target named is T1, COX-I (purified cyclooxygenase Type 1) (Ovis aries, UniProt P05979).
T1 construct: purified cyclooxygenase from ram seminal vesicles; from tissue; host or cells: ram seminal vesicles
T1 sequence (P05979 25-600): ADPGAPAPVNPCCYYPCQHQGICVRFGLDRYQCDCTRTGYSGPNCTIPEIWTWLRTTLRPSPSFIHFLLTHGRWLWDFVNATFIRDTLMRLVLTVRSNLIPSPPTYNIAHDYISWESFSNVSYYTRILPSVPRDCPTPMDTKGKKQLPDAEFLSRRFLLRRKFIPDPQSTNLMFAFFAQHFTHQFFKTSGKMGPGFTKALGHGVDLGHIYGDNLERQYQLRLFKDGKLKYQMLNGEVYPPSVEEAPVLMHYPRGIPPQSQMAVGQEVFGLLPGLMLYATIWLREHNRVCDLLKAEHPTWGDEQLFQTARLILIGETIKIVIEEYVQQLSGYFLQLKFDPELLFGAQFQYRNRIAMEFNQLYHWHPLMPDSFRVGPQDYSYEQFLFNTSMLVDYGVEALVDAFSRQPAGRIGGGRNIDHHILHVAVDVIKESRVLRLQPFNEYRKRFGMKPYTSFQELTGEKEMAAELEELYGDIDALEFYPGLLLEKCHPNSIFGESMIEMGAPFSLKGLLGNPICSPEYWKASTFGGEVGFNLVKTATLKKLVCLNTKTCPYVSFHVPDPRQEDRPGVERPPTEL
As to the kind of experiment: COX inhibition assay, purified cyclooxygenase (Type 1). It is filed as biochemical, ram. As to conditions: for COX-I inhibition: FIG. 5.

The target in the next data set is T2, PDE peak A (PDE5) (Homo sapiens, UniProt O76074).
T2 construct: approximately four hundred million SW480 cells at confluence were scraped; endogenous in cells; host or cells: SW480 human colon adenocarcinoma cells (DEAE-Trisacryl M fraction)
The experiment in a line: Inhibition of cGMP hydrolysis by PDE peak A from SW480 cells. It is filed as biochemical.

In data set [3] the test system is PDE peak B (novel cGMP-specific phosphodiesterase). As to the kind of experiment: Inhibition of cGMP hydrolysis by PDE peak B (novel cGMP-specific PDE) from SW480 cells. The format is biochemical, human. As to conditions: for Km: absence of cAMP.
The subject of data set [4] is premalignant lesions in mammary gland organ culture. The experiment in a line: Inhibition of premalignant lesions in mammary gland organ culture. It is filed as cell-based, mouse. Conditions: FIG. 17.
Procedure: Test compounds identified by the above methods can be tested for antineoplastic activity by their ability to inhibit the incidence of preneoplastic lesions in a mammary gland organ culture system.
For example, female BALB/c mice can be treated with a combination of estradiol and progesterone daily, in order to prime the glands to be responsive to hormones in vitro. The animals are sacrificed and thoracic mammary glands are excised aseptically and incubated for ten days in growth media supplemented with insulin, prolactin, hydrocortisone, and aldosterone. DMBA (7,12-dimethylbenz(a)anthracene) is added to medium to induce the formation of premalignant lesions. Fully developed glands are then deprived of prolactin, hydrocortisone, and aldosterone, resulting in the regression of the glands but not the premalignant lesions.
The test compound is dissolved in DMSO and added to the culture media for the duration of the culture period. At the end of the culture period, the glands are fixed in 10% formalin, stained with alum carmine, and mounted on glass slides. […]
The extent of the area occupied by the mammary lesions can be quantitated by projecting an image of the gland onto a digitation pad. […] The space covered by each of the unregressed structures is also outlined on the digitization pad and quantitated by the computer.
The subject of data set [5] is PDE peak B (novel cGMP-specific phosphodiesterase). As to conditions: cited from earlier work.
The next data set deals with HT-29 cells (cAMP level). As to the kind of experiment: cAMP production in cultured HT-29 cells (radioimmunoassay). It is filed as cell-based, human. Conditions: 30 minutes. (In general: Changes in cAMP serve as a functional read-out for many G protein-coupled receptors.)
The subject of data set [6] is [H][C@@]12COP(=O)(O)O[C@@]1([H])[C@@H](O)[C@H](n1cnc3c(=O)[nH]c(N)nc31)O2. As to the kind of experiment: purified protein, by the assay type. As to conditions: 30.0 °C.
The target of another data set is native bovine PDE5. As to conditions: read-out: Kd (cGMP binding, native bovine PDE5); cited from earlier work.
Where [7] appears, read: Homo sapiens, HT-29; read-out: Growth % Inhibition at 100 μM.

As a reminder, the inhibition is the percentage by which the read-out fell short of the control. A word on the IC50: it is the point on the concentration scale where inhibition reaches its midpoint. A higher IC50 goes with a need for much substance. As a reminder, the Km is the concentration of substrate that gives half-maximal velocity. In general, Vmax refers to the rate approached at saturating substrate. By Kd is commonly meant a measure of binding affinity in units of concentration.

Entries after “also recorded” stand apart in the source; their conditions may differ. Like-named read-outs stand apart in the source and are kept apart here.

Procedure for cGMP PDE: The mixture is incubated at 30° C. for 10 minutes with isolated PDE of this invention. Reactions are terminated, for example, by boiling the reaction mixture for 75 seconds. After cooling on ice, 100 μl of 0.5 mg/ml snake venom (O. Hannah venom available from Sigma) is added and incubated for 10 minutes at 30° C. This reaction is then terminated by the addition of an alcohol, e.g. 1 ml of 100% methanol. Assay samples are applied to 1 ml Dowex 1-X8 column; and washed with 1 ml of 100% methanol. The amount of radioactivity in the breakthrough and the wash from the column is combined and measured with a scintillation counter. The degree of phosphodiesterase inhibition is determined by calculating the amount of radioactivity in drug-treated reactions and comparing against a control sample (a reaction mixture lacking the tested compound but with drug solvent).

`CCN(CC)CCSC12CC(=O)OC1(C)/C(=C/c1ccc(S(C)(=O)=O)cc1)c1ccc(F)cc12` (racemic) [A, rac-threo-(E)-1-(N,N'-diethylaminoethanethio)-1-(butan-1',4'-olido)-[3',4':1,2]-6-fluoro-2-methyl-3-(p-methylsulfonylbenzylidene)-indan]: the inhibition at 100 µM in the data set on HT-29 cells (setting [7]) is 68%; in data set [2] it was less than 25%. Besides, the “cGMP PDE % Inhibition at 10 μM” value in the data set on cGMP PDE was less than 25%. Further, the fold induction at 100 µM in [1] is less than 2.

With `COc1cc(/C=C2/C(C)=C(CC(=O)NCc3ccccc3)c3cc(F)ccc32)cc(OC)c1OC` [Compound E, (Z)-5-Fluoro-2-methyl-1-(3,4,5-trimethoxybenzylidene)-3-indenylacetamide, N-benzyl], the “apoptosis-inducing or growth-inhibiting properties” value in data set [1] (neoplastic cells) is “precisely the opposite”. For the same compound, the “COX-I inhibition” value in data set [2] was “neither test compound B and E significantly inhibit COX-I”. Further, the “mode of inhibition of peak A” value at PDE peak A (PDE5) was “competitively inhibited”. For the same compound, in data set [3], the “mode of inhibition of peak B” value was “competitively inhibited”.

As to `COc1cc(/C=C2/C(C)=C(CC(=O)O)c3cc(F)ccc32)cc(OC)c1OC` [B, (Z)-5-Fluoro-2-methyl-1-(3,4,5-trimethoxybenzylidene)-3-acetic acid], the “cGMP PDE % Inhibition at 10 μM” value in the data set on cGMP PDE is recorded as less than 25%. Moreover, in the data set with cGMP PDE (20 μM, FIG. 8), the “cGMP PDE inhibition at 20 μM” value is “greater than 50%”. Also, the fold induction at 100 µM in [1] stood at 3.4. In addition, in data set [2], the “COX-I inhibition” value is “neither test compound B and E significantly inhibit COX-I”.

In the case of `CC1=C(CC(=O)O)c2cc(F)ccc2/C1=C\c1ccc([S+](C)[O-])cc1` (stereo not shown) [sulindac], the “inhibition of premalignant lesions” value in data set [4] is “effectively inhibit the formation of premalignant lesions”.

Regarding `CCCc1nn(C)c2c(=O)[nH]c(-c3cc(S(=O)(=O)N4CCN(C)CC4)ccc3OCC)nc12` [Sildenafil], the “effect on new cGMP-specific PDE (words, '375 application)” value in data set [5] was “little relative effect”. Also, at PDE peak A (PDE5), the “inhibition of peak A activity” value is given as “inhibited activity of peak A”.

Take `COc1ccc(C2CNC(=O)C2)cc1OC1CCCC1` (stereo not shown) [Rolipram]: the “sensitivity of peak B / novel PDE to inhibitor” value in data set [3] is recorded as “insensitive”. The “effect on cAMP level” value with HT-29 cells (cAMP level) was “increased cAMP”.

As to `CCOC(=O)C1=C[C@]2(CC)CCCN3CCc4c(n1c1ccccc41)[C@@H]32` [Vinpocetine], the “sensitivity of peak B / novel PDE to inhibitor” value in [3] was “insensitive”.

Turning to `CC1=C(CC(=O)O)c2cc(F)ccc2/C1=C\c1ccc(Cl)cc1` [Compound C, (Z)-5-Fluoro-2-methyl-1-(p-chlorobenzylidene)-3-acetic acid], in the data set on HT-29 cells (setting [7]), the inhibition at 100 µM amounted to 80%. Besides, the “cGMP PDE % Inhibition at 10 μM” value with cGMP PDE was less than 25%.

Regarding `Clc1cccc(Nc2nnc(-c3ccccc3)c3ccccc23)c1` [MY5445, 1-(3-chloroanilino)-4-phenyphthalazine], in data set [2], the inhibition at 100 µM worked out at 94%.

For the compound `CC1(C)C(=O)Nc2ccc(C3=NNC(=O)CC3)cc21` [Indolidan], in data set [3], the “sensitivity of peak B / novel PDE to inhibitor” value was “insensitive”.

As for `O=C(O)C1CCN(c2nc(NCc3ccc4c(c3)OCO4)c3cc(Cl)ccc3n2)CC1` [Compound E4021], the inhibition at 100 µM with HT-29 cells (Homo sapiens, HT-29, read-out: Growth % Inhibition at 100 μM) is less than 50%.

As for `CCCCCC[C@H]([C@H](C)O)n1cnc2c(N)ncnc21` (relative stereo) [EHNA], in [1], the fold induction at 100 µM was less than 2. Besides, the IC50 against PDE peak A (PDE5) is greater than 100 µM; in data set [3] (cGMP hydrolysis, 0.25 μM 3H-cGMP) it was 3.7 µM.

For PDE peak A (PDE5) (Homo sapiens), in [6], the Km was 1.07 µM and the Vmax is reported as 0.16 nmol/min/mg.

With `Nc1nc2c(ncn2[C@@H]2O[C@@H]3COP(=O)(O)O[C@H]3[C@H]2O)c(=O)[nH]1` [cGMP, cyclic guanosine 3',5'-monophosphate], the Kd on native bovine PDE5 is 1.3 µM. Further, the Michaelis-Menten constant (Km) in data set [3] (read-out: Km of peak B for cGMP (increasing slope)) was less than 1 µM; in data set [3] (read-out: apparent Km of peak B for cGMP (first, decreasing part of Eadie-Hofstee plot)), 8.4 µM.

As for `CCCOc1ccccc1-c1nc2nn[nH]c2c(=O)[nH]1` [Zaprinast], the “sensitivity of peak B / novel PDE to inhibitor” value in [3] is recorded as “reduced sensitivity to inhibition; also recorded: zaprinast-insensitive”.

Consider `CC(=O)NC(CSC12CC(=O)OC1(C)/C(=C/c1ccc(S(C)(=O)=O)cc1)c1ccc(F)cc12)C(=O)O` (racemic) [D, rac-(E)-1-(butan-1',4'-olido)-[3',4':1,2]-6-fluoro-2-methyl-3-(p-methylsulfonylbenzylidene)-1S-indanyl-N-acetylcysteine], for which the inhibition at 100 µM is 78% with HT-29 cells (setting [7]) and less than 25% in data set [2].
